Patent US20120295907A1, “INSECTICIDAL COMPOUNDS” (SYNGENTA CROP PROTECTION, LLC, priority 2009, published 2012)

Key:
Type in all cases: in vivo
Diabrotica balteata = Diabrotica balteata (Corn Root Worm) artificial diet MTP test; settings: 120 h, 200 ppm (concentration in well 18 ppm), L2 larvae, 5 days, larval mortality, growth regulation
Spodoptera littoralis = Spodoptera littoralis (Egyptian Cotton Leafworm) cotton leaf disc spray test; settings: foliar, 72 h, 200 ppm spray on cotton leaf discs, L1 larvae, mortality, feeding behavior, growth regulation 3 DAT
Plutella xylostella = Plutella xylostella (Diamond Back Moth) artificial diet MTP test; settings: 144 h, 200 ppm (concentration in well 18 ppm), L2 larvae, 6 days, larval mortality, growth regulation
Heliothis virescens = Heliothis virescens (Tobacco Budworm) egg test on artificial diet; settings: 96 h, 200 ppm (concentration in well 18 ppm), eggs 0-24 h old on artificial diet, 4 days, egg mortality, larval mortality, growth regulation

Measured: pest or weed control at 200 ppm

COc1c(NC(=O)c2cccc([N+](=O)[O-])c2Br)cccc1C(=O)Nc1c(Cl)cc(C(F)(C(F)(F)F)C(F)(F)C(F)(F)F)cc1Br (stereo not drawn) [B85]
≥ 80%: all assays above

COc1c(NC(=O)c2cn(C)nc2C(F)F)cccc1C(=O)Nc1c(Cl)cc(C(F)(C(F)(F)F)C(F)(F)C(F)(F)F)cc1Br (stereo not drawn) [B131]
≥ 80%: all assays above

COc1cccc(F)c1C(=O)Nc1cccc(C(=O)Nc2c(Cl)cc(C(F)(C(F)(F)F)C(F)(F)C(F)(F)F)cc2Br)c1OC (stereo not drawn) [B166]
≥ 80%: all assays above

COc1c(NC(=O)c2ccc(Cl)c(Cl)c2)cccc1C(=O)Nc1c(C)cc(C(F)(C(F)(F)F)C(F)(F)C(F)(F)F)cc1C (stereo not drawn) [F17]
≥ 80%: all assays above

COc1c(NC(=O)c2cc(Br)ccc2Cl)cccc1C(=O)Nc1c(Cl)cc(C(F)(C(F)(F)F)C(F)(F)C(F)(F)F)cc1Br (stereo not drawn) [B83]
≥ 80%: all assays above

COc1c(NC(=O)c2ccc(C(F)(F)F)cc2SC)cccc1C(=O)Nc1c(Cl)cc(C(F)(C(F)(F)F)C(F)(F)C(F)(F)F)cc1Br (stereo not drawn) [B125]
≥ 80%: Diabrotica balteata | Plutella xylostella | Heliothis virescens

CCc1cc(C(F)(C(F)(F)F)C(F)(F)F)cc(C)c1NC(=O)c1cccc(NC(=O)c2ccc(C#N)cc2C)c1OC [J4]
≥ 80%: Diabrotica balteata | Plutella xylostella | Heliothis virescens

COc1c(NC(=O)c2ncc(Cl)cc2Cl)cccc1C(=O)Nc1c(Cl)cc(C(F)(C(F)(F)F)C(F)(F)C(F)(F)F)cc1Br (stereo not drawn) [B185]
≥ 80%: all assays above

COc1c(NC(=O)c2cc([N+](=O)[O-])ccc2Cl)cccc1C(=O)Nc1c(Cl)cc(C(F)(C(F)(F)F)C(F)(F)C(F)(F)F)cc1Br (stereo not drawn) [B62]
≥ 80%: all assays above

COc1c(NC(=O)c2cccc(F)c2F)cccc1C(=O)Nc1c(Cl)cc(C(F)(C(F)(F)F)C(F)(F)C(F)(F)F)cc1Br (stereo not drawn) [B22]
≥ 80%: all assays above

COc1c(NC(=O)c2cn(C)nc2C#N)cccc1C(=O)Nc1c(Cl)cc(C(F)(C(F)(F)F)C(F)(F)C(F)(F)F)cc1Br (stereo not drawn) [B117]
≥ 80%: all assays above

COc1c(NC(=O)c2cnccn2)cccc1C(=O)Nc1c(Cl)cc(C(F)(C(F)(F)F)C(F)(F)C(F)(F)F)cc1Br (stereo not drawn) [B56]
≥ 80%: all assays above

COc1c(NC(=O)c2ccc([N+](=O)[O-])c(C)c2)cccc1C(=O)Nc1c(C)cc(C(F)(C(F)(F)F)C(F)(F)C(F)(F)F)cc1C (stereo not drawn) [F23]
≥ 80%: all assays above

COc1c(NC(=O)c2cc(Cl)ccc2F)cccc1C(=O)Nc1c(Cl)cc(C(F)(C(F)(F)F)C(F)(F)F)cc1Cl [E8]
≥ 80%: all assays above

COc1c(NC(=O)c2cc(C)ccc2Cl)cccc1C(=O)Nc1c(Cl)cc(C(F)(C(F)(F)F)C(F)(F)C(F)(F)F)cc1Br (stereo not drawn) [B72]
≥ 80%: all assays above

COc1c(NC(=O)c2cc([N+](=O)[O-])c(F)cc2Cl)cccc1C(=O)Nc1c(Cl)cc(C(F)(C(F)(F)F)C(F)(F)C(F)(F)F)cc1Br (stereo not drawn) [B130]
≥ 80%: all assays above

COCc1cc(C(F)(C(F)(F)F)C(F)(F)C(F)(F)F)cc(Br)c1NC(=O)c1cccc(NC(=O)c2ccc(C#N)cc2C)c1OC (stereo not drawn) [I1]
≥ 80%: Diabrotica balteata | Plutella xylostella | Heliothis virescens

COc1c(NC(=O)c2ccc(C(F)(F)F)cc2)cccc1C(=O)Nc1c(C)cc(C(F)(C(F)(F)F)C(F)(F)C(F)(F)F)cc1C (stereo not drawn) [F26]
≥ 80%: all assays above

COc1c(NC(=O)c2ccc(C)c(Br)c2)cccc1C(=O)Nc1c(Cl)cc(C(F)(C(F)(F)F)C(F)(F)C(F)(F)F)cc1Br (stereo not drawn) [B84]
≥ 80%: all assays above

COc1c(NC(=O)c2ccc(-n3cccc3)cc2)cccc1C(=O)Nc1c(Cl)cc(C(F)(C(F)(F)F)C(F)(F)C(F)(F)F)cc1Br (stereo not drawn) [B30]
≥ 80%: Diabrotica balteata | Spodoptera littoralis | Heliothis virescens

COc1c(NC(=O)c2cc(C)oc2C(F)(F)F)cccc1C(=O)Nc1c(Cl)cc(C(F)(C(F)(F)F)C(F)(F)C(F)(F)F)cc1Br (stereo not drawn) [B144]
≥ 80%: all assays above

CCc1cc(C(F)(C(F)(F)F)C(F)(F)F)cc(C)c1NC(=O)c1cccc(NC(=O)c2c(F)cc(F)cc2F)c1OC [J3]
≥ 80%: Diabrotica balteata | Plutella xylostella | Heliothis virescens

COc1c(NC(=O)c2ccc(Cl)cc2)cccc1C(=O)Nc1c(C)cc(C(F)(C(F)(F)F)C(F)(F)C(F)(F)F)cc1C (stereo not drawn) [F19]
≥ 80%: all assays above

COc1c(NC(=O)c2cnccc2C(F)(F)F)cccc1C(=O)Nc1c(Cl)cc(C(F)(C(F)(F)F)C(F)(F)C(F)(F)F)cc1Br (stereo not drawn) [B126]
≥ 80%: all assays above

COc1c(NC(=O)c2ccc(F)cc2F)cccc1C(=O)Nc1c(C)cc(C(F)(C(F)(F)F)C(F)(F)C(F)(F)F)cc1C (stereo not drawn) [F9]
≥ 80%: all assays above

COc1cccc(C(=O)Nc2cccc(C(=O)Nc3c(C)cc(C(F)(C(F)(F)F)C(F)(F)C(F)(F)F)cc3C)c2OC)c1 (stereo not drawn) [F22]
≥ 80%: all assays above

COCc1cc(C(F)(C(F)(F)F)C(F)(F)C(F)(F)F)cc(Cl)c1NC(=O)c1cccc(NC(=O)c2c(F)cc(F)cc2F)c1OC (stereo not drawn) [H2]
≥ 80%: Diabrotica balteata | Plutella xylostella | Heliothis virescens
